# According to patent US9012489B2, “Phenyl-3-aza-bicyclo[3.1.0]hex-3-yl-methanones and the use thereof as medicament” (Boehringer Ingelheim International GmbH, priority 2011, dated 2015):
# Target: T1, GlyT1 transporter (Homo sapiens, UniProt P48067)
# T1 construct: endogenously expressing the GlyT1 transporter; host or cells: SK-N-MC human neuroblastoma cells
# T1 sequence (P48067 1-706): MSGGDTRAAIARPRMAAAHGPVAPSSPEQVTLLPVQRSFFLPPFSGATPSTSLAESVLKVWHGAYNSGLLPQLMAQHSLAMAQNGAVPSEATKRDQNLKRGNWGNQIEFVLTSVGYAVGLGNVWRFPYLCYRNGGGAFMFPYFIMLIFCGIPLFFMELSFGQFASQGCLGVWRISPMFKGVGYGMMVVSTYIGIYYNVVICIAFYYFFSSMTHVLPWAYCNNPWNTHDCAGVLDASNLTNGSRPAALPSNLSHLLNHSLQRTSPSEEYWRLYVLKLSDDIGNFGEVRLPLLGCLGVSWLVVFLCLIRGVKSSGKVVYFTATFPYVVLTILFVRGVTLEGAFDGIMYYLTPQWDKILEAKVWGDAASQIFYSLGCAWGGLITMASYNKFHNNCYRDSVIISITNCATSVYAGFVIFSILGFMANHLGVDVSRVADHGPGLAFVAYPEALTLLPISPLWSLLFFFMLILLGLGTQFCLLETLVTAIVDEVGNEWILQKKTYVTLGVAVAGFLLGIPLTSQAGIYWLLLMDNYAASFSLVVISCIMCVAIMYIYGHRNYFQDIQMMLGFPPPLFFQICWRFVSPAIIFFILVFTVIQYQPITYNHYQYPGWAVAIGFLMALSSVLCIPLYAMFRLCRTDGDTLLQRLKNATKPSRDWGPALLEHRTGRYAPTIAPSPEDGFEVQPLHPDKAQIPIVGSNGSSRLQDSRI
# Assay: GlyT1 assay: 3H-glycine uptake into SK-N-MC cells (Cytostar-T format)
# Assay type: cell-based
# Conditions: glycine uptake in human SK-N-MC cells endogenously expressing GlyT1; 500 nM glycine, 1% DMSO, signal recorded over 60 min
# Text: Cells expressing either endogenously the GlyT1 transporter like JAR cells (human placental choriocarcinoma cells; e.g. WO 2008/002583) or SK-N-MC cells (human neuroblastoma cells; Depoortere et al., 2005. Neuropsychopharmacology 30:1963-1985) or primary neurons or cells which have been transfected with a plasmid encoding the cDNA of a functional GlyT1 transporter and stably or transiently express GlyT1 (e.g. WO 2006/08200) can be used to monitor glycine uptake in cells. Different protocols for determination of the glycine uptake into the cells described above can be applied in order to identify and rank compounds which interfere with glycine uptake in the selected cell.
# Compounds outlined in the examples below were characterized using human SK-N-MC cells (ATCC number HTB-10) endogenously expressing the GlyT1 transporter which is responsible for the uptake of glycine into these cells and the uptake of glycine into these cells is monitored using the Cytostar-T assay format (GE Healthcare, RPNQ0162) which is based on the radioactive glycine taken up by the cells and brought into proximity with the scintillant contained within the base of the plate. The radioactive decay is converted to a light signal based on the integration of the scintillation matrix into the assay plate. The uptake is recorded as kinetic and the slope of the measured counts over time is used to calculate IC50.
# In detail, SK-N-MC cells are seeded into 96-well Cytostar-T assay plates at a density of 200,000 cells/well and grown for 16-18 hours to confluence in growth medium as recommended by ATCC. Before starting the assay, cells are washed once with HBSS (Hank's buffered salt solution; Sigma, H8264) cont. 5 mM alanine (referred in here as HBSS/Ala) and afterwards the following reagents are added: • 1. 80 μl/well HBSS/Ala • 2. 20 μl/well of HBSS/Ala containing 6× the concentration of compound in 6% DMSO • 3. approx. 5-10 min incubation • 4. 20 μl/well 3 μM glycine (^3H-glycine (Perkin Elmer, NET004001MC, specific activity: 52 Ci/mmol; diluted 1:1 with unlabelled glycine) in HBSS/Ala.
# In the final assay, glycine concentration is 500 nM (250 nM derived from the ^3H-glycine Perkin Elmer, 250 nM unlabelled glycine), DMSO concentration is 1%.
# The assay plate is immediately after addition of the ^3H-glycine placed into a Micro-Beta Counter (Perkin Elmer) and the signal is recorded over 60 min.
# To calculate uptake, the slope in the linear range of the kinetics is determined using GraphPadPrism and for the different slopes at the selected concentrations IC50 are calculated by curve fitting using the software GraphPadPrism.
# Maximal glycine uptake in every experiment is determined by incubation of SK-N-MC cells with substrate but without inhibitor. Unspecific uptake of glycine by the cells is determined by incubating the cells with substrate and a reference GlyT1 inhibitor e.g. 10 μM RG-1678 (Pinard et al., 2010, J. Med. Chem. 53(12):4603-14).
# Compounds are diluted from 10 mM stocks and in general, for IC50 determination 8 compound concentrations are used.
row,SMILES,IC50
1,"C[C@@H](Oc1ccc(S(C)(=O)=O)cc1C(=O)N1CC2CC2(c2csc(C(F)(F)F)n2)C1)C(F)(F)F (mixture of isomers) [Example 29, [5-Methanesulfonyl-2-(2,2,2-trifluoro-1-methyl-ethoxy)-phenyl]-[1-(2-trifluoromethyl-thiazol-4-yl)-3-aza-bicyclo[3.1.0]hex-3-yl]-methanone]",11 nM
2,"Cc1nc(C23CC2CN(C(=O)c2cc(S(C)(=O)=O)ccc2O[C@@H](C)C(F)(F)F)C3)co1 (mixture of isomers) [Example 32, [5-Methanesulfonyl-2-(2,2,2-trifluoro-1-methyl-ethoxy)-phenyl]-[1-(2-methyl-oxazol-4-yl)-3-aza-bicyclo[3.1.0]hex-3-yl]-methanone]",26 nM
3,"CCS(=O)(=O)c1ccc(O[C@@H](C)C(F)(F)F)c(C(=O)N2CC3CC3(c3noc(C(F)(F)F)n3)C2)c1 (mixture of isomers) [Example 40, [5-Ethanesulfonyl-2-(2,2,2-trifluoro-1-methyl-ethoxy)-phenyl]-[1-(5-trifluoromethyl-[1,2,4]oxadiazol-3-yl)-3-aza-bicyclo[3.1.0]hex-3-yl]-methanone]",19 nM
4,"C[C@@H](Oc1ccc(S(C)(=O)=O)cc1C(=O)N1CC2CC2(c2noc(C3CC3)n2)C1)C(F)(F)F (mixture of isomers) [Example 41, [1-(5-Cyclopropyl-[1,2,4]oxadiazol-3-yl)-3-aza-bicyclo[3.1.0]hex-3-yl]-[5-methanesulfonyl-2-(2,2,2-trifluoro-1-methyl-ethoxy)-phenyl]-methanone]",6 nM
5,"C[C@H](Oc1ccc(S(C)(=O)=O)cc1C(=O)N1CC2CC2(c2cc(C(F)(F)F)on2)C1)C(F)(F)F (mixture of isomers) [Example 46, [5-Methanesulfonyl-2-(2,2,2-trifluoro-1-methyl-ethoxy)-phenyl]-[1-(5-trifluoromethyl-isoxazol-3-yl)-3-aza-bicyclo[3.1.0]hex-3-yl]-methanone]",29 nM
6,"C[C@@H](Oc1ccc(S(C)(=O)=O)cc1C(=O)N1CC2CC2(c2cc(C(F)(F)F)on2)C1)C(F)(F)F (mixture of isomers) [Example 49, [5-Methanesulfonyl-2-(2,2,2-trifluoro-1-methyl-ethoxy)-phenyl]-[1-(5-trifluoromethyl-isoxazol-3-yl)-3-aza-bicyclo[3.1.0]hex-3-yl]-methanone]",19 nM
7,"Cc1cc(C23CC2CN(C(=O)c2cc(S(C)(=O)=O)ccc2O[C@@H](C)C(F)(F)F)C3)no1 (mixture of isomers) [Example 52, [5-Methanesulfonyl-2-(2,2,2-trifluoro-1-methyl-ethoxy)-phenyl]-[1-(5-methyl-isoxazol-3-yl)-3-aza-bicyclo[3.1.0]hex-3-yl]-methanone]",15 nM
8,"C[C@H](Oc1ccc(S(C)(=O)=O)cc1C(=O)N1CC2CC2(C2=NCC(C(F)(F)F)O2)C1)C(F)(F)F (mixture of isomers) [Example 57, [5-Methanesulfonyl-2-(2,2,2-trifluoro-1-methyl-ethoxy)-phenyl]-[1-(5-trifluoromethyl-4,5-dihydro-oxazol-2-yl)-3-aza-bicyclo[3.1.0]hexyl-3-yl]-methanone]",354 nM

# Continued by falling IC50, values first:
row,IC50,SMILES
1,190 nM,"Cc1coc(C23CC2CN(C(=O)c2cc(S(C)(=O)=O)ccc2O[C@@H](C)C(F)(F)F)C3)n1 (mixture of isomers) [Example 33, [5-Methanesulfonyl-2-(2,2,2-trifluoro-1-methyl-ethoxy)-phenyl]-[1-(4-methyl-oxazol-2-yl)-3-aza-bicyclo[3.1.0]hex-3-yl]-methanone]"
2,101 nM,"Cc1noc(C23CC2CN(C(=O)c2cc(S(C)(=O)=O)ccc2O[C@H](C)C(F)(F)F)C3)n1 (mixture of isomers) [Example 35, [5-Methanesulfonyl-2-(2,2,2-trifluoro-1-methyl-ethoxy)-phenyl]-[1-(3-methyl-[1,2,4]oxadiazol-5-yl)-3-aza-bicyclo[3.1.0]hex-3-yl]-methanone]"
3,98 nM,"Cc1noc(C23CC2CN(C(=O)c2cc(S(C)(=O)=O)ccc2O[C@@H](C)C(F)(F)F)C3)n1 (mixture of isomers) [Example 34, [5-Methanesulfonyl-2-(2,2,2-trifluoro-1-methyl-ethoxy)-phenyl]-[1-(3-methyl-[1,2,4]oxadiazol-5-yl)-3-aza-bicyclo[3.1.0]hex-3-yl]-methanone]"
4,89 nM,"Cc1nnc(C23CC2CN(C(=O)c2cc(S(C)(=O)=O)ccc2O[C@@H](C)C(F)(F)F)C3)o1 (mixture of isomers) [Example 38, [5-Methanesulfonyl-2-(2,2,2-trifluoro-1-methyl-ethoxy)-phenyl]-[1-(5-methyl-[1,3,4]oxadiazol-2-yl)-3-aza-bicyclo[3.1.0]hex-3-yl]-methanone]"
5,70 nM,"C[C@H](Oc1ccc(S(C)(=O)=O)cc1C(=O)N1CC2CC2(c2cncc(C(F)(F)F)c2)C1)C(F)(F)F (mixture of isomers) [Example 53, [5-Methanesulfonyl-2-(2,2,2-trifluoro-1-methyl-ethoxy)-phenyl]-[1-(5-trifluoromethyl-pyridin-3-yl)-3-aza-bicyclo[3.1.0]hex-3-yl]-methanone]"
6,62 nM,"C[C@H](Oc1ccc(S(C)(=O)=O)cc1C(=O)N1CC2CC2(c2nc(C(F)(F)F)no2)C1)C(F)(F)F (mixture of isomers) [Example 36, [5-Methanesulfonyl-2-(2,2,2-trifluoro-1-methyl-ethoxy)-phenyl]-[1-(3-trifluoromethyl-[1,2,4]oxadiazol-5-yl)-3-aza-bicyclo[3.1.0]hex-3-yl]-methanone]"
7,34 nM,"C[C@@H](Oc1ccc(S(C)(=O)=O)cc1C(=O)N1CC2CC2(c2nc(C(F)(F)F)no2)C1)C(F)(F)F (mixture of isomers) [Example 37, [5-Methanesulfonyl-2-(2,2,2-trifluoro-1-methyl-ethoxy)-phenyl]-[1-(3-trifluoromethyl-[1,2,4]oxadiazol-5-yl)-3-aza-bicyclo[3.1.0]hex-3-yl]-methanone]"
8,17 nM,"C[C@@H](Oc1ccc(S(C)(=O)=O)cc1C(=O)N1CC2CC2(c2noc(C(F)(F)F)n2)C1)C(F)(F)F (mixture of isomers) [Example 58, [5-Methanesulfonyl-2-(2,2,2-trifluoro-1-methyl-ethoxy)-phenyl]-[1-(5-trifluoromethyl-[1,2,4]oxadiazol-3-yl)-3-aza-bicyclo[3.1.0]hex-3-yl]-methanone]"
9,16 nM,"C[C@H](Oc1ccc(S(C)(=O)=O)cc1C(=O)N1CC2CC2(c2cccc(C(F)(F)F)n2)C1)C(F)(F)F (mixture of isomers) [Example 54, [5-Methanesulfonyl-2-(2,2,2-trifluoro-1-methyl-ethoxy)-phenyl]-[1-(6-trifluoromethyl-pyridin-2-yl)-3-aza-bicyclo[3.1.0]hex-3-yl]-methanone]"
10,8 nM,"C[C@H](Oc1ccc(S(C)(=O)=O)cc1C(=O)N1CC2CC2(c2csc(C(F)(F)F)n2)C1)C(F)(F)F (mixture of isomers) [Example 26, [5-Methanesulfonyl-2-(2,2,2-trifluoro-1-methyl-ethoxy)-phenyl]-[1-(2-trifluoromethyl-thiazol-4-yl)-3-aza-bicyclo[3.1.0]hex-3-yl]-methanone]"
